Measurements as given in US5000959A, “Liposome composition and production thereof” (Takeda Chemical Industries, Ltd., priority 1989, dated 1991).

Assay: Phase transition temperature (differential thermal analysis)
Format: physicochemical
Conditions: single phospholipid
Procedure: Phase transition temperature was determined by differential thermal analysis.

Row | phase transition temperature (found value) of phospholipid [°C] | Substance
1 | 47.4 | palmitoylstearoylphosphitadylcholine [PSPC]
2 | 44.0 | steroylpalmitoylphosphitdylcholine [SPPC]
